Measurements: patent publication US20040049353A1, “System and method for monitoring water using bivalve mollusks” (priority 2003, published 2004)

Tested on: mollusks
Test: Exposure of mollusks in the water-monitoring system to toxicant-loaded water; shell gape and Degree of Alarm (DOA)
Assay type: in vivo
Procedure: Further calibration of the system is performed after one or more mollusk chambers are properly installed. The digital circuitry or computer 39 then monitors the gape of the mollusk during approximately the first three days after installation. From the gape values derived during this period, the computer derives a natural maximum gape value for the individual mollusk. Subsequent calculations based on output from the mollusk chamber 15 are based on the percentage of gape, i.e., the percentage of the maximum gape output value that the presently detected gape output value represents.
When the system 3 contains a number of mollusk chambers 15, the individual mollusk percentage gape data for all of the mollusks of the system is totaled, and the average percentage gape value calculated periodically per sampling interval by computer 38. This mean data value Gi is the variable used as the mollusk output data for determining if toxicants are present in the water being screened.
In the present specification, Gi means the current average mollusk gape data, Gi−1 means the most recent earlier mollusk output value, Gi−2 the next earlier mollusk output variable, etc. The oldest of the gape values is Gi−n+1. Preferably, the set of data values Gi−n+1 to Gi are stored in a FIFO (first-in, first-out) stack data structure in the computer doing the analysis. The stack acts as a shift register, shifting earlier data values as the new data value Gi is acquired. Preferably the value of n is 30, and the data values G are acquired every half-second.
A variable referred to as Degree of Alarm (“DOA”) is derived from the mean mollusk output data using one of a variety of analysis formulae or methods, ranging from simpler models to more complex systems based on neural net technology that can identify the particular toxicant types that are present in the water and causing a reaction by the mollusks.
According to an aspect of the invention, the variance over time of the gape values is one of the best statistical indicators of the pumping of the mollusk. By the term variance, what is meant is a determination of the variability of the gape values from a mean value, which may be determined or expressed using a variety of functions. Particularly preferred, however, is the classical calculation of variance as: [formula]
wherein V is the mean variance in gape over a recent period of time, preferably 30 seconds, R is the mean regression of the gape over the period (regression herein meaning the slope of the best-fit line through the data values of the time period). M may be the traveling mean as defined above, or may be the mean gape taken over another longer period, preferably about one hour.
An implementation of this method is shown by the graphs of FIGS. 7 to 10. Water being screened by a system as described previously was loaded with sulphuric acid, resulting in a drop in pH as shown in the graph of FIG. 7.
An implementation of such a DOA method using a Logistic calculation, with a variance factor added for variances over 50, is illustrated by the graphs of FIGS. 12 to 16.
In this example, a system as in Example 3 was used, only the toxicant introduced was copper (as aqueous CuSO4), as shown in FIG. 17.

SMILES: [Cl-].[Na+] [chloride, NaCl]
- DOA output (Logistic calculation with variance factor for variances over 50, at 0.5 hours, chloride concentration still relatively low): greater than 5
- raw gape data, decreasing gape over time (gradually increasing concentration of chloride (as aqueous NaCl)): less than 40 % of normal maximum gape

SMILES: O=S(=O)([O-])[O-].[Cu+2] [copper, CuSO4]
- DOA values (Logistic calculation with variance factor, out of a possible 10, between 0.5 and 1.0 hours, copper concentration still relatively low): exceed 8
- gape when DOA exceeded 8 (copper (as aqueous CuSO4), between 0.5 and 1.0 hours): 50%

SMILES: O=S(=O)(O)O [sulphuric acid]
- DOA values (spike) (DOA=(V·|R|)/M, water loaded with sulphuric acid, before 200 minutes): greater than 100
- average percentage gape of the mollusks (water loaded with sulphuric acid (drop in pH), shortly after 200 minutes): less than 10 % of the normal maximum
- percentage gape when variance spikes (water loaded with sulphuric acid, variance over ten most recent values spikes shortly before 200 minutes): 40%
